Laboratory results taken from patent US20130165446A1 (priority 2010, published 2013).

What was measured:
[1] = biological target: T1, human nuclear receptor PPARα (Homo sapiens, UniProt Q07869); test: PPAR agonist activity measurement test (cell-free FRET cofactor assay), PPARα; format: biochemical; settings: result in words
T1 sequence (Q07869 239-466 limits assumed): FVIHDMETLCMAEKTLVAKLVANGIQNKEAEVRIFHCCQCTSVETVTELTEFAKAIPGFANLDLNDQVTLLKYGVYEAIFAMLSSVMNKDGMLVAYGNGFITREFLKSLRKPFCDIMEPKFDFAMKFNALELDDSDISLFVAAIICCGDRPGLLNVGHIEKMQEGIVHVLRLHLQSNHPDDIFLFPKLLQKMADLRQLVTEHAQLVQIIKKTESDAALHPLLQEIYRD
Experimental: (§1) Agonist activity to the human nuclear receptors PPARα, β, and γ was measured using a biochemical fluorescent resonance energy transfer (FRET) assay system, which is a cell-free assay system, following a method described in the literature (for example, J. Biol. Chem., vol. 281 (8), pages 4920-4930 (2006)).
(§2) Specifically, after an N-terminal biotin-labeled peptide having cofactor peptide SRC1 (amino acid sequence 676-700), which includes the nuclear receptor bonding LXXLL motif region, and the fluorescent fusion proteins of the PPAR ligand binding domain were allowed to stand at room temperature for one hour, the energy transfer between the fluorescence donor and the fluorescence acceptor was measured to detect the test compound dose reaction to the cofactor.
(§3) A Perkin-Elmer Envision Multilabel Plate Reader was used for measurement. During measurement, 320 nm was used as the excitation wavelength, and 615 nm and 665 nm were used as the emission wavelengths. The test compound was dissolved in DMSO (dimethylsulfoxide) to a final solution concentration of 1%.

[2] = tested on: ob/ob mice (C57b1/6ob/ob female mice); test: Glucose tolerance test (in vivo); settings: for Glucose concentration: fasted ob/ob mice, oral load 2 g/kg glucose, Example 8 oral 10 mg/kg days 1-25 then 20 mg/kg days 26-33, rosiglitazone 3 mg/kg, n=8
Experimental: (§4) A test compound (the compound of Example 8, n=8) was given orally to 5- to 6-week-old ob/ob mice (C57b1/6ob/ob female mice) at a dose of 10 mg/kg for 1-25 days, then a test compound (the compound of Example 8) was given at 20 mg/kg for 26-33 days. An oral load test of 2 g/kg of glucose was carried out while the mice were fasted, and the blood glucose concentration was measured at −30, 0, 30, 60, 90, 120, and 180 minutes. For comparison, 3 mg/kg of rosiglitazone (n=8) were given for 1-25 days, then 3 mg/kg of rosiglitazone were given for 26-33 days, and the blood glucose concentration was measured in the same manner. Table 7 indicates the results.

[3] = biological target: T2, human nuclear receptor PPARβ (Homo sapiens, UniProt Q03181); test: PPAR agonist activity measurement test (cell-free FRET cofactor assay), PPARβ; format: biochemical; settings: result in words
T2 sequence (Q03181 211-439 limits assumed): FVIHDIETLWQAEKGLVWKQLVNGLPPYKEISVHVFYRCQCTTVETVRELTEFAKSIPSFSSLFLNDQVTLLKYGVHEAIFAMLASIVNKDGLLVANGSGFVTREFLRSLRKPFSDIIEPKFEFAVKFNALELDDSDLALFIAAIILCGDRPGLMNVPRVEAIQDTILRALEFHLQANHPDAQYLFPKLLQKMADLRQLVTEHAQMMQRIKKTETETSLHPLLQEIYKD
Experimental: as §1, §2, §3

[4] = Weight gain test (in vivo); settings: ob/ob mice; for Weight gain: Example 8 10 mg/kg, rosiglitazone 3 mg/kg, days 1-25
Experimental: as §4
The body weight of mice was measured when 10 mg/kg of the same test compound (the compound of Example 8) were given for 1-25 days, and 3 mg/kg of rosiglitazone were given for 1-25 days. Table 8 indicates the results.

[5] = biological target: T3, human recombinant (CHO cell) AT1 receptor (Homo sapiens, UniProt P30556); test: Angiotensin II inhibition test (radioligand binding to AT1 receptor); settings: test compound concentration 10^−9 M; radioactive iodine-labeled angiotensin II, 37° C., sixty minutes; read-out: Inhibition rate (%)
T3 construct: expressed in transfected cells; host or cells: CHO cells
T3 sequence (P30556 1-359): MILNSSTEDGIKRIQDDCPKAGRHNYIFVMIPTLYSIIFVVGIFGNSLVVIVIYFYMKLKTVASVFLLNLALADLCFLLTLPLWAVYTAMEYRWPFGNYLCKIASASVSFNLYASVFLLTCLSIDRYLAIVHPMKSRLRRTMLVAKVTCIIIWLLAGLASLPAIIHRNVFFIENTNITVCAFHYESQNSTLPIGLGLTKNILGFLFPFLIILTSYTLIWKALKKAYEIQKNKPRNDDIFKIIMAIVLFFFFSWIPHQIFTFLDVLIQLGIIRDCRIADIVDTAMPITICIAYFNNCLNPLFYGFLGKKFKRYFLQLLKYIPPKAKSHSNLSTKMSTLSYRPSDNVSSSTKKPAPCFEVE
Experimental: A test of inhibition of angiotensin II to human recombinant (CHO cell) AT1 receptor following a method described in the literature (for example, Regul. Pept., vol. 44 (2), page 131 (1993)) was used to measure inhibitory activity to a test compound.
The ligand used was 10^−9 M of a test compound dissolved in 1% DMSO (dimethylsulfoxide). This was reacted with radioactive iodine-labeled angiotensin II at 37° C. for sixty minutes. Taking the inhibition rate of angiotensin II at 10 μM as nonspecific binding, the specific binding rate was calculated by subtracting this nonspecific portion. Table 6 indicates the results (the inhibition rate at test compound concentration: 10^−9 M)

[6] = biological target: T4, human nuclear receptor PPARγ (Homo sapiens, UniProt P37231); test: PPAR agonist activity measurement test (cell-free FRET cofactor assay), PPARγ; format: biochemical
T4 sequence (P37231 238-503 limits assumed): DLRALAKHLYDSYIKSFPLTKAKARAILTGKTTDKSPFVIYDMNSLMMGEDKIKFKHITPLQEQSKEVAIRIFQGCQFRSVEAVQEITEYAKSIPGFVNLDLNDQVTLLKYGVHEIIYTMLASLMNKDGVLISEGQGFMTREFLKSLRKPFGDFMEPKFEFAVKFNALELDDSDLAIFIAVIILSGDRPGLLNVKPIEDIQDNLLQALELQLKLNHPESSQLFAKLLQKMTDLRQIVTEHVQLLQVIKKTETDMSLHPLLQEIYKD
Experimental: as §1, §2, §3

| Compound | activity against PPARα [1] | Glucose concentration ([2]; 0 min) [mmol/L] | Glucose concentration ([2]; 30 min) [mmol/L] | Glucose concentration ([2]; 60 min) [mmol/L] | Glucose concentration ([2]; 120 min) [mmol/L] | Glucose concentration ([2]; 180 min) [mmol/L] | increase in blood glucose concentration compared to the control ([2]; ob/ob mice, oral glucose load 2 g/kg, result in words) | Glucose concentration ([2]; −30 min) [mmol/L] | activity against PPARβ [3] | Weight gain ([4]; day 0) [g] | Weight gain ([4]; day 4) [g] | Weight gain ([4]; day 11) [g] | Weight gain ([4]; day 14) [g] | Weight gain ([4]; day 18) [g] | Weight gain ([4]; day 24) [g] | weight gain compared to the control ([4]; 10 mg/kg days 1-25, result in words) | weight gain compared to rosiglitazone ([4]; 10 mg/kg days 1-25 vs rosiglitazone 3 mg/kg, result in words) | inhibition at 0.001 µM [5] [%] | activity against PPARγ ([6]; FRET agonist assay, result in words) | EC50 ([6]; FRET, cofactor peptide SRC1, twelve concentrations 50 μM to 0 nM, 1% DMSO, read-out: ED50 (the source's name)) [nM] |
| --- | --- | --- | --- | --- | --- | --- | --- | --- | --- | --- | --- | --- | --- | --- | --- | --- | --- | --- | --- | --- |
| CCCc1nc(CSc2ccc(Oc3ccc4nc(COc5ccc(CC6SC(=O)NC6=O)cc5)n(C)c4c3)cc2)c(C(=O)OCC)n1Cc1ccc(-c2ccccc2-c2nnn[nH]2)cc1 (stereo not drawn) [Example 8, 4-[4-{2-[4-(2,4-dioxothiazolidin-5-ylmethyl)phenoxymethyl]-1-methyl-1H-benzimidazol-6-yloxy}phenylthiomethyl]-2-propyl-1-[2′-(1H-tetrazol-5-yl)biphenyl-4-ylmethyl]-1H-imidazole-5-carboxylic acid ethyl ester] | did not exhibit activity | 6.4 ± 0.6 | 12.5 ± 0.9 | 7.3 ± 0.9 | 5.5 ± 0.6 | 6.1 ± 0.6 | significantly inhibited increase in blood glucose concentration compared to the control | 7.6 ± 0.9 | did not exhibit activity | 0 | 0.8 ± 0.0 | 3.3 ± 0.2 | 4.2 ± 0.3 | 5.9 ± 0.3 | 6.8 ± 0.2 | nearly comparable weight gain to the control | significantly inhibited weight gain compared to rosiglitazone | 73 | exhibited activity only against PPARy | 114 |
| CN(CCOc1ccc(CC2SC(=O)NC2=O)cc1)c1ccccn1 (stereo not drawn) [Rosiglitazone, rosiglitazone, reference compound] |  | 4.6 ± 0.3 | 12.5 ± 0.9 | 4.9 ± 0.3 | 4.6 ± 0.1 | 4.6 ± 0.1 |  | 4.6 ± 0.3 |  | 0 | 1.2 ± 0.1 | 4.5 ± 0.3 | 5.8 ± 0.1 | 7.5 ± 0.2 | 8.9 ± 0.2 |  |  |  |  |  |
| CCCc1nc(CSCCOc2ccc3nc(COc4ccc(CC5SC(=O)NC5=O)cc4)n(C)c3c2)c(C(=O)OCC)n1Cc1ccc(-c2ccccc2-c2nnn[nH]2)cc1 (stereo not drawn) [Example 15, 4-[2-[1-methyl-2-{4-(2,4-dioxothiazolidin-5-ylmethyl)phenoxymethyl}-1H-benzimidazol-6-yloxy]ethylthiomethyl]-2-propyl-1-[2′-(1H-tetrazol-5-yl)biphenyl-4-ylmethyl]-1H-imidazole-5-carboxylic acid ethyl ester] |  |  |  |  |  |  |  |  |  |  |  |  |  |  |  |  |  | 47 |  |  |
